# Measurements published in PMC6132360 (Clinical and Translational Science, 2018).
# Read-outs that look alike come from different tables or passages of the source.
# How the values were obtained:
# 5‐AR types 1 and 2 = assay: Effect of dutasteride on in vitro testosterone metabolism in human hepatocytes; assay type: cell-based; conditions: 200 nM dutasteride with 50 μM testosterone, 60 minutes; for change in metabolite formation/levels with dutasteride co‐treatment: human hepatocytes
# [1] = for AUC0‐24h at T800, fold higher than with T200: 800 mg vs 200 mg oral testosterone
# UGT2B17 = target: T1, UGT2B17 (Homo sapiens, UniProt O75795); assay type: in vitro ADME; conditions: scaled by absolute UGT2B abundance in the intestine
# T1 sequence (O75795 24-530): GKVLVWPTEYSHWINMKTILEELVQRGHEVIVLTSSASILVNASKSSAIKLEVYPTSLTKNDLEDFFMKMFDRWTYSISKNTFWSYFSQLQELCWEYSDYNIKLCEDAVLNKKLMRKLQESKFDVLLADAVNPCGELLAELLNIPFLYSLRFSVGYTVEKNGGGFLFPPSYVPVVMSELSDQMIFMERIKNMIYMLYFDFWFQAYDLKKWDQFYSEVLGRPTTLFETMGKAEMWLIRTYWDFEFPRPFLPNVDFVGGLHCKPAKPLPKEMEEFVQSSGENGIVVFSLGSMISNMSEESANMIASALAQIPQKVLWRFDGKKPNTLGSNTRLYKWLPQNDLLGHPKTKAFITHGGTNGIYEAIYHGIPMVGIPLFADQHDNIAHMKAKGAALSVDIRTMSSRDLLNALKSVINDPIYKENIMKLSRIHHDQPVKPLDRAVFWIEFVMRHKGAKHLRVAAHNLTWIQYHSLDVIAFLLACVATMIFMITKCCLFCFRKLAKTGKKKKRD
# UGT2B7 = UGT2B7 (Homo sapiens, UniProt P16662); conditions: scaled by absolute UGT2B abundance in the liver
# human hepatocytes = assay: In vitro metabolite formation from testosterone in primary human hepatocyte; assay type: in vitro ADME
# [2] = oral; cited from earlier work
# testosterone production = conditions: normal men, single injection 300 μg/kg subcutaneous; cited from earlier work
# UGT2B7, sequence (P16662 24-529): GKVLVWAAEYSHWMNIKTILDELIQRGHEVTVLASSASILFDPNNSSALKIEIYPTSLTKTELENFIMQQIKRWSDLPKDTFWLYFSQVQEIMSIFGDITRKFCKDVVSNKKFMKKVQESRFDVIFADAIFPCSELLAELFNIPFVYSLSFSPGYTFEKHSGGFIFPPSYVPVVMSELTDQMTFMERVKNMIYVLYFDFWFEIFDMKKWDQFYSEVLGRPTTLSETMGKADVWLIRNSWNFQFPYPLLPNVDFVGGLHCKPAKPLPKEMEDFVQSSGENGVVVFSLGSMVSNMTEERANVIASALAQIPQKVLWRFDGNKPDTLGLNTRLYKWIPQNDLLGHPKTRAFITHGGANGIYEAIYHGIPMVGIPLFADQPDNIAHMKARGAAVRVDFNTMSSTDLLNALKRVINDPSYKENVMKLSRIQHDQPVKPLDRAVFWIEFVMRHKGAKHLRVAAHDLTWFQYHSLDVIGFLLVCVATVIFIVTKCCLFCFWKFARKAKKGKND
compound,measurement,setting,value
"C[C@]12CC[C@H]3[C@@H](C[C@@H](O)C4=CC(=O)CC[C@@]43C)[C@@H]1CC[C@@H]2O [6β‐OH‐T, 6β‐hydroxytestosterone]",change in metabolite formation/levels with dutasteride co‐treatment,5‐AR types 1 and 2,significant decreases
same,detection in serum,[1]; after oral testosterone,only detectable in a few samples
"C[C@]12CC[C@@H](O)C[C@@H]1CC[C@@H]1[C@@H]2CC[C@]2(C)C(=O)CC[C@@H]12 [A, androsterone]",change in metabolite formation/levels with dutasteride co‐treatment,5‐AR types 1 and 2,significant decreases
same,predicted contribution of UGT2B17 to intestinal glucuronidation,UGT2B17,70%
same,predicted contribution of UGT2B7 to hepatic glucuronidation,UGT2B7,100%
"C[C@]12CCC(=O)C=C1CC[C@@H]1[C@@H]2CC[C@]2(C)C(=O)CC[C@@H]12 [AED, androstenedione]",change in metabolite formation/levels with dutasteride co‐treatment,5‐AR types 1 and 2,No significant changes
same,in vitro formation from testosterone,human hepatocytes,46%
same,"AUC0‐24h at T800, fold higher than with T200",[1],4.2 fold
same,circulating levels higher in T200+D and T800+D as compared with testosterone alone,[1],5.7 fold
same,Tmax,"[1]; male, human, in vivo, 200 mg, T200",2 h
same,Tmax,"[1]; male, human, in vivo, T200+D",2 h
"C[C@]12CCC(=O)C[C@@H]1CC[C@@H]1[C@@H]2CC[C@]2(C)[C@@H](O)CC[C@@H]12 [DHT, dihydrotestosterone]",change in metabolite formation/levels with dutasteride co‐treatment,5‐AR types 1 and 2,significant decreases
same,"AUC0‐24h at T800, fold higher than with T200",[1],3.3 fold
same,Tmax,"[1]; male, human, in vivo, 800 mg, T800",2 h
same,AUC(0-t),"[1]; male, human, in vivo, AUC0–24h, T800+D, average, n = 7",0.0266 µM·h
same,Tmax,"[1]; male, human, in vivo, T200+D",4 h
"C[C@]12CC[C@@H](O)C[C@H]1CC[C@@H]1[C@@H]2CC[C@]2(C)C(=O)CC[C@@H]12 [Etio, etiocholanolone]",predicted contribution of UGT2B17 to intestinal glucuronidation,UGT2B17,90%
same,circulating levels higher in T200+D and T800+D as compared with testosterone alone,[1],2.3 fold
"C[C@]12CC[C@H]3[C@@H](CCC4=CC(=O)CC[C@@]43C)[C@@H]1CC[C@@H]2O [Testosterone, reference compound]",bioavailability,[2],2–8%
same,predicted contribution of UGT2B17 to intestinal glucuronidation,UGT2B17,100%
"C[C@]12C=CC(=O)N[C@@H]1CC[C@@H]1[C@@H]2CC[C@]2(C)[C@@H](C(=O)Nc3cc(C(F)(F)F)ccc3C(F)(F)F)CC[C@@H]12 [dutasteride, reference compound]",inhibition of 5‐AR types 1 and 2 mediated metabolism of testosterone,5‐AR types 1 and 2,complete inhibition
acyline,duration of suppression of testosterone production,testosterone production,≥ 15 days
